Key:
Assay in all cases: relative viability (nuclei count vs DMSO), 5 days (fraction); higher = more cells survive
NCI-H650 = tested on: NCI-H650
Outline: (§1)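 Dosing by pin tool came one day after lung cancer cell lines were seeded in 1536-well plates, using either one drug or a fixed anchor-drug dose plus five library-drug doses (not always all listed) in √10 steps. After 5 days, nuclei were counted on 4× images. Relative viability is treated-well nuclei count divided by vehicle-well nuclei count, and values are medians of duplicate plates.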

NCI-H1355 = tested on: NCI-H1355
Outline: as §1

NCI-H838 = tested on: NCI-H838
Outline: as §1

NCI-H2023 = tested on: NCI-H2023
Outline: as §1

EPLC-272H = tested on: EPLC-272H
Outline: as §1

NCI-H1993 = tested on: NCI-H1993
Outline: as §1

PC-14 = tested on: PC-14
Outline: as §1

HARA = tested on: HARA
Outline: as §1

HCC-15 = tested on: HCC-15
Outline: as §1

LC-2-ad = tested on: LC-2-ad
Outline: as §1

ABC-1 = tested on: ABC-1
Outline: as §1

HCC-78 = tested on: HCC-78
Outline: as §1

COR-L23 = tested on: COR-L23
Outline: as §1

NCI-H1915 = tested on: NCI-H1915
Outline: as §1

NCI-H358 = tested on: NCI-H358
Outline: as §1

SW 1573 = tested on: SW 1573
Outline: as §1

NCI-H2347 = tested on: NCI-H2347
Outline: as §1

NCI-H2342 = tested on: NCI-H2342
Outline: as §1

NCI-H2126 = tested on: NCI-H2126
Outline: as §1

NCI-H2085 = tested on: NCI-H2085
Outline: as §1

UMC-11 = tested on: UMC-11
Outline: as §1

NCI-H1651 = tested on: NCI-H1651
Outline: as §1

LU99A = tested on: LU99A
Outline: as §1

For `O=C(O)c1ccc(-c2c[nH]c3ncc(-c4ccccc4)cc23)cc1C1CCCC1` + COc1cccc2cc(-c3nc([C@H]4CC[C@H](C(=O)O)CC4)n4ncnc(N)c34)[nH]c12 [OSI-027] (partner 0.5 µM), the relative viability (NCI-H650; first compound 0.04 µM) was 0.522, the relative viability (NCI-H650; first compound 0.1265 µM) was 0.6 and the relative viability (NCI-H650; first compound 0.4 µM) was 0.485. The relative viability (NCI-H650; first compound 1.265 µM) was 0.457, the relative viability (NCI-H1355; first compound 0.04 µM) was 0.43 and the relative viability (NCI-H1355; first compound 0.1265 µM) was 0.47. The relative viability (NCI-H1355; first compound 0.4 µM) was 0.371, the relative viability (NCI-H1355; first compound 1.265 µM) was 0.379 and the relative viability (NCI-H838; first compound 0.04 µM) was 0.322. It also gave a relative viability (NCI-H838; first compound 0.1265 µM) of 0.452, a relative viability (NCI-H838; first compound 0.4 µM) of 0.4 and a relative viability (NCI-H838; first compound 1.265 µM) of 0.358. For the same compound, the relative viability (NCI-H2023; first compound 0.04 µM) was 0.516, the relative viability (NCI-H2023; first compound 0.1265 µM) was 0.572 and the relative viability (NCI-H2023; first compound 0.4 µM) was 0.41. The relative viability (NCI-H2023; first compound 1.265 µM) was 0.319, the relative viability (EPLC-272H; first compound 0.04 µM) was 0.266 and the relative viability (EPLC-272H; first compound 0.1265 µM) was 0.283. For the same compound, the relative viability (EPLC-272H; first compound 0.4 µM) was 0.292, the relative viability (EPLC-272H; first compound 1.265 µM) was 0.281 and the relative viability (NCI-H1993; first compound 0.04 µM) was 0.521. It also gave a relative viability (NCI-H1993; first compound 0.1265 µM) of 0.55, a relative viability (NCI-H1993; first compound 0.4 µM) of 0.568 and a relative viability (NCI-H1993; first compound 1.265 µM) of 0.586. It also gave a relative viability (PC-14; first compound 0.04 µM) of 0.759, a relative viability (PC-14; first compound 0.1265 µM) of 0.86 and a relative viability (PC-14; first compound 0.4 µM) of 0.826. It also gave a relative viability (PC-14; first compound 1.265 µM) of 0.877, a relative viability (HARA; first compound 0.04 µM) of 0.463 and a relative viability (HARA; first compound 0.1265 µM) of 0.733. It also gave a relative viability (HARA; first compound 0.4 µM) of 0.55, a relative viability (HARA; first compound 1.265 µM) of 0.591 and a relative viability (HCC-15; first compound 0.04 µM) of 0.807. The relative viability (HCC-15; first compound 0.1265 µM) was 0.813, the relative viability (HCC-15; first compound 0.4 µM) was 0.633 and the relative viability (HCC-15; first compound 1.265 µM) was 0.399. The relative viability (LC-2-ad; first compound 0.04 µM) was 0.805, the relative viability (LC-2-ad; first compound 0.1265 µM) was 0.905 and the relative viability (LC-2-ad; first compound 0.4 µM) was 0.757. The relative viability (LC-2-ad; first compound 1.265 µM) was 0.68, the relative viability (ABC-1; first compound 0.04 µM) was 0.468 and the relative viability (ABC-1; first compound 0.1265 µM) was 0.511. It also gave a relative viability (ABC-1; first compound 0.4 µM) of 0.418, a relative viability (ABC-1; first compound 1.265 µM) of 0.568 and a relative viability (HCC-78; first compound 0.1265 µM) of 0.396. It also gave a relative viability (HCC-78; first compound 0.4 µM) of 0.386, a relative viability (HCC-78; first compound 1.265 µM) of 0.327 and a relative viability (COR-L23; first compound 0.04 µM) of 0.763. It also gave a relative viability (COR-L23; first compound 0.1265 µM) of 0.876, a relative viability (COR-L23; first compound 0.4 µM) of 0.701 and a relative viability (COR-L23; first compound 1.265 µM) of 0.511. For the same compound, the relative viability (NCI-H1915; first compound 0.04 µM) was 0.629, the relative viability (NCI-H1915; first compound 0.1265 µM) was 0.638 and the relative viability (NCI-H1915; first compound 0.4 µM) was 0.604. For the same compound, the relative viability (NCI-H1915; first compound 1.265 µM) was 0.545, the relative viability (NCI-H358; first compound 0.04 µM) was 0.807 and the relative viability (NCI-H358; first compound 0.1265 µM) was 0.933. The relative viability (NCI-H358; first compound 0.4 µM) was 0.727, the relative viability (NCI-H358; first compound 1.265 µM) was 0.359 and the relative viability (SW 1573; first compound 0.04 µM) was 0.685. It also gave a relative viability (SW 1573; first compound 0.1265 µM) of 0.74, a relative viability (SW 1573; first compound 0.4 µM) of 0.55 and a relative viability (SW 1573; first compound 1.265 µM) of 0.447. The relative viability (NCI-H2347; first compound 0.04 µM) was 0.451, the relative viability (NCI-H2347; first compound 0.1265 µM) was 0.392 and the relative viability (NCI-H2347; first compound 0.4 µM) was 0.425. The relative viability (NCI-H2347; first compound 1.265 µM) was 0.367, the relative viability (NCI-H2342; first compound 0.04 µM) was 0.489 and the relative viability (NCI-H2342; first compound 0.1265 µM) was 0.744. For the same compound, the relative viability (NCI-H2342; first compound 0.4 µM) was 0.748, the relative viability (NCI-H2342; first compound 1.265 µM) was 0.646 and the relative viability (NCI-H2126; first compound 0.04 µM) was 0.749. It also gave a relative viability (NCI-H2126; first compound 0.1265 µM) of 0.732, a relative viability (NCI-H2126; first compound 0.4 µM) of 0.827 and a relative viability (NCI-H2126; first compound 1.265 µM) of 0.618. For the same compound, the relative viability (NCI-H2085; first compound 0.04 µM) was 0.867, the relative viability (NCI-H2085; first compound 0.1265 µM) was 0.761 and the relative viability (NCI-H2085; first compound 0.4 µM) was 0.73. The relative viability (NCI-H2085; first compound 1.265 µM) was 0.554, the relative viability (UMC-11; first compound 0.04 µM) was 0.482 and the relative viability (UMC-11; first compound 0.1265 µM) was 0.547. It also gave a relative viability (UMC-11; first compound 0.4 µM) of 0.46, a relative viability (UMC-11; first compound 1.265 µM) of 0.375 and a relative viability (NCI-H1651; first compound 0.04 µM) of 0.659. For the same compound, the relative viability (NCI-H1651; first compound 0.1265 µM) was 0.715, the relative viability (NCI-H1651; first compound 0.4 µM) was 0.67 and the relative viability (NCI-H1651; first compound 1.265 µM) was 0.583. It also gave a relative viability (LU99A; first compound 0.04 µM) of 0.314, a relative viability (LU99A; first compound 0.1265 µM) of 0.309 and a relative viability (LU99A; first compound 0.4 µM) of 0.364. The relative viability (LU99A; first compound 1.265 µM) was 0.3.
